Our source for the pest or weed control values is US9615577B2, “Herbicidally active cyclic dione compounds, or derivatives therefor, substituted by a phenyl which has an alkynyl-containing substituent” (Syngenta Limited, priority 2012, dated 2017).

Common to all, as to format: in vivo
Experiment [1] deals with Echinochloa crus-galli (ECHCG). The experiment can be described thus: Test 1A glasshouse assay for herbicidal activity, pre-emergence. Conditions: 312 h, 250 g/ha, evaluated after 13 days, read-out: percentage phytotoxicity ECHCG. As to the method:
(§1) Seeds of a variety of test species were sown in standard soil in pots. After cultivation for one day (pre-emergence) or after 8 days cultivation (post-emergence) under controlled conditions in a glasshouse (at 24/16° C., day/night; 14 hours light; 65% humidity), the plants were sprayed with an aqueous spray solution derived from the formulation of the technical active ingredient in acetone/I water (50:50) solution containing 0.5% Tween 20 (polyoxyethelyene sorbitan monolaurate, CAS RN 9005-64-5). The test plants were then grown in a glasshouse under controlled conditions in a glasshouse (at 24/16° C., day/night; 14 hours light; 65% humidity) and watered twice daily. After 13 days for pre and post-emergence, the test was evaluated visually for percentage phytotoxicity to the plant (where 100=total damage to plant; 0=no damage to plant).
(§2) Alopecurus myosuroides (ALOMY), Setaria faberi (SETFA), Echinochloa crus-galli (ECHCG), Solanum nigrum (SOLNI), Amaranthus retroflexus (AMARE), Ipomoea hederacea (IPOHE), and Abutilon theophasti Medik. (ABUTH, common English name “velvetleaf”). Of these, Alopecurus myosuroides (ALOMY), Setaria faberi (SETFA), and Echinochloa crus-galli (ECHCG) are grassy monocotyledonous weeds.

Experiment [2] relates to Alopecurus myosuroides (ALOMY). The description is as above. Conditions: 312 h, 250 g/ha, evaluated after 13 days, read-out: percentage phytotoxicity ALOMY. As to the method:
as §1, §2

The test system of experiment [3] is Amaranthus retroflexus (AMARE). The description is as above. Conditions: 312 h, 250 g/ha, evaluated after 13 days, read-out: percentage phytotoxicity AMARE. As to the method:
as §1, §2

In experiment [4] the test system is Setaria faberi (SETFA). Described as above. The note with it: 312 h, 250 g/ha, evaluated after 13 days, read-out: percentage phytotoxicity SETFA. As to the method:
as §1, §2

The test system of experiment [5] is Abutilon theophasti Medik. (ABUTH). The description is as above. The note with it: 312 h, 250 g/ha, evaluated after 13 days, read-out: percentage phytotoxicity ABUTH. As to the method:
as §1, §2

For experiment [6], the system named is Echinochloa crus-galli (ECHCG). The experiment is described as follows: Test 1A glasshouse assay for herbicidal activity, post-emergence. The note with it: 312 h, evaluated after 13 days, read-out: percentage phytotoxicity ECHCG. Here is the method:
as §1, §2

Experiment [7] deals with Alopecurus myosuroides (ALOMY). The experiment is described as above. Conditions: 312 h, evaluated after 13 days, read-out: percentage phytotoxicity ALOMY. Here is the method: as §1, §2
The test system of experiment [8] is Amaranthus retroflexus (AMARE). Described as above. Conditions: 312 h, evaluated after 13 days, read-out: percentage phytotoxicity AMARE. As to the method: as §1, §2
Experiment [9] has as its system Setaria faberi (SETFA). The description is as above. The note with it: 312 h, evaluated after 13 days, read-out: percentage phytotoxicity SETFA. As to the method: as §1, §2
For experiment [10], the system named is Abutilon theophasti Medik. (ABUTH). The experiment is described as above. The note with it: 312 h, evaluated after 13 days, read-out: percentage phytotoxicity ABUTH. Here is the method:
as §1, §2

Experiment [11] has as its system Amarantus retroflexus (AMARE). The experiment is described as follows: Biological Example 2 comparative herbicidal data, post-emergence glasshouse screen. The note with it: Amaranthus retroflexus, read-out: Post-emergence herbicidal activities (percentage phytotoxicity) AMARE; for pest or weed control at 8 g/ha: 8 g/ha application rate; for pest or weed control at 30 g/ha: 30 g/ha application rate.

Experiment [12] concerns Echinochloa crus-galli (ECHCG). Described as above. The note with it: 312 h, read-out: Post-emergence herbicidal activities (percentage phytotoxicity) ECHCG; for pest or weed control at 8 g/ha: 8 g/ha application rate; for pest or weed control at 30 g/ha: 30 g/ha application rate. Here is the method:
as §1
(§3) Comparative herbicidal data is given below for certain exemplified compounds with 4-(prop-1-ynyl)-2,6-dimethylphenyl or 4-(chloroethynyl)-2,6-dimethylphenyl headgroups, compared to the corresponding compounds with either 4-ethynyl-2,6-dimethylphenyl or 2,4,6-trimethylphenyl headgroups, as follows. Comparative herbicidal data is also given below for certain exemplified compounds with 4-(prop-1-ynyl)-2-chloro-6-methoxyphenyl headgroups, compared to the corresponding compounds with 4-ethynyl-2-chloro-6-methoxyphenyl or 4-(but-1-ynyl)-2-chloro-6-methoxyphenyl or 4-methyl-2-chloro-6-methoxyphenyl or 2-chloro-6-methoxyphenyl headgroups, as follows.
(§4) Except where specified otherwise, the glasshouse screen for herbicidal activity is substantially the same as that presented in Biological Example 1A (Test 1A) hereinabove. The weed abbreviations are as defined in Biological Example 1A.

In experiment [13] the test system is Alopecurus myosuroides (ALOMY). The description is as above. Conditions: 312 h, read-out: Post-emergence herbicidal activities (percentage phytotoxicity) ALOMY; for pest or weed control at 8 g/ha: 8 g/ha application rate; for pest or weed control at 30 g/ha: 30 g/ha application rate. Here is the method:
as §1, §3, §4

The subject of experiment [14] is Setaria faberi (SETFA). The experiment is described as above. The note with it: 312 h, read-out: Post-emergence herbicidal activities (percentage phytotoxicity) SETFA; for pest or weed control at 8 g/ha: 8 g/ha application rate; for pest or weed control at 30 g/ha: 30 g/ha application rate. As to the method: as §1, §3, §4
For experiment [15], the system named is Abutilon theophasti Medik. (ABUTH). The description is as above. Conditions: read-out: Post-emergence herbicidal activities (percentage phytotoxicity) ABUTH; for pest or weed control at 8 g/ha: 8 g/ha application rate; for pest or weed control at 30 g/ha: 30 g/ha application rate.

As to `CC#Cc1cc(C)c(C2=C(OC(=O)C(C)(C)C)C3CCC(C3)C2=O)c(C)c1` (stereo not drawn) [Compound P-5], the pest or weed control at 250 g/ha in experiment [1] turned out to be 100%; in experiment [2] it was 100%; in experiment [3], 0%; in the experiment with Setaria faberi (SETFA) [4], 100%; in [5], 0%; in experiment [6], 100%. The pest or weed control at 250 g/ha in experiment [7] was 90%; in experiment [8], 10%; in the experiment with Setaria faberi (SETFA) [9], 90%; in experiment [10], 70%. Further, the pest or weed control at 30 g/ha came out at 80% in experiment [6]; 60% in [7]; 0% in experiment [8]; 70% in the experiment on Setaria faberi (SETFA) [9]; 0% in [10].

In the case of `CC#Cc1cc(Cl)c(C2=C(OC(=O)C(C)(C)C)C3CCC(C3)C2=O)c(OC)c1` (stereo not drawn) [Compound P-7], the pest or weed control at 250 g/ha in [1] was 100%; in experiment [2], 100%; in [3] it was 0%; in the experiment on Setaria faberi (SETFA) [4], 100%; in [5] it was 0%; in experiment [6] it was 100%. Further, the pest or weed control at 250 g/ha was found to be 100% in experiment [7], 0% in experiment [8], 100% in the experiment with Setaria faberi (SETFA) [9] and 70% in experiment [10]. The pest or weed control at 30 g/ha in experiment [6] was 100%; in [7], 90%; in experiment [8], 0%; in the experiment on Setaria faberi (SETFA) [9] it was 90%; in [10] it was 10%.

Turning to `COc1cc(C)cc(Cl)c1C1C(=O)C2CCC(C2)C1=O` (stereo not drawn) [Compound X-5, reference compound], the pest or weed control at 8 g/ha in experiment [11] worked out at 30%; in [12] it was 0%; in experiment [13] it was 0%; with Setaria faberi (SETFA) [14] it was 20%; in experiment [15] it was 0%. Besides, the pest or weed control at 30 g/ha came out at 30% in [11]; 80% in [12]; 30% in experiment [13]; 60% with Setaria faberi (SETFA) [14]; 10% in experiment [15].

For the molecule `COc1cccc(Cl)c1C1C(=O)CC2(CCOCC2)CC1=O` [Compound X-6, reference compound], the pest or weed control at 30 g/ha amounted to 20% in experiment [11]; 10% in [12]; 20% in experiment [13]; 10% with Setaria faberi (SETFA) [14]; 0% in experiment [15].

As for `CSCCC1CC(=O)C(c2c(C)cc(C)cc2C)C(=O)C1` (stereo not drawn) [Compound X-7, reference compound], the pest or weed control at 8 g/ha (in experiment [11]; in experiment [12]; in [13]; in the experiment on Setaria faberi (SETFA) [14]; in experiment [15]) was 0% throughout. Besides, the pest or weed control at 30 g/ha is 0% in experiment [11]; 10% in experiment [12]; 30% in [13]; 20% with Setaria faberi (SETFA) [14]; 0% in experiment [15].

Turning to `CSC(C)CC1CC(=O)C(c2c(C)cc(C)cc2C)C(=O)C1` (stereo not drawn) [Compound X-8, reference compound], the pest or weed control at 30 g/ha in experiment [11] came to 0%; in experiment [12] it was 70%; in experiment [13], 70%; in the experiment with Setaria faberi (SETFA) [14], 80%; in experiment [15], 0%.
